Experiments:
[1] = test system: gene-modified allodepleted cells; experiment: Induction of apoptosis with AP20187 in gene-modified allodepleted cells (annexin V/7-AAD); format: cell-based, human
Protocol: Suicide gene functionality was assessed by adding a small molecule synthetic homodimerizer, AP20187 (Ariad Pharmaceuticals; Cambridge, Mass.), at 10 nM final concentration the day following CD19 immunomagnetic selection. Cells were stained with annexin V and 7-amino-actinomycin (7-AAD)(BD Pharmingen) at 24 hours and analyzed by flow cytometry. Cells negative for both annexin V and 7-AAD were considered viable, cells that were annexin V positive were apoptotic, and cells that were both annexin V and 7-AAD positive were necrotic. The percentage killing induced by dimerization was corrected for baseline viability as follows: Percentage killing=100%−(% Viability in AP20187-treated cells÷% Viability in non-treated cells).
Cells were maintained in T cell medium containing 50 U/ml IL-2 until 22 days after transduction. A portion of cells was reactivated on 24-well plates coated with […] OKT3 and 1 μg/ml anti-CD28 (Clone CD28.2, BD Pharmingen, San Jose, Calif.) for 48 to 72 hours. CD19 expression and suicide gene function in both reactivated and non-reactivated cells were measured on day 24 or 25 post transduction.
In some experiments, cells also were cultured for 3 weeks post transduction and stimulated with 30G-irradiated allogeneic PBMC at a responder:stimulator ratio of 1:1. After 4 days of co-culture, a portion of cells was treated with 10 nM AP20187. Killing was measured by annexin V/7-AAD staining at 24 hours, and the effect of dimerizer on bystander virus-specific T cells was assessed by pentamer analysis on AP20187-treated and untreated cells.

[2] = test system: iCasp9M-transduced EBV-CTLs; experiment: CID-induced elimination of GFP+ iCasp9M-transduced EBV-CTLs (flow cytometry for GFP); format: cell-based, human
[3] = test system: T cells transduced with these inducible death molecules; settings: inducible Fas or FADD DED; cited from earlier work
[4] = test system: iCasp9M.IRES.IL-12-transduced cells; experiment: IL-12 ELISA of supernatant of iCasp9M.I.IL-12-transduced EBV-CTLs; format: cell-based, human; settings: 10 nM CID; detection limit 8 pg/mL
Protocol: The concentration of interferon-γ (IFN-γ), IL-2, IL-4, IL-5, IL-10, and tumor necrosis factor-α (TNFα) in CTL culture supernatants was measured using the Human Th1/Th2 cytokine cytometric Bead Array (BD Pharmingen) and the concentration of IL-12 in the culture supernatants was measured by enzyme-linked immunosorbent assay (ELISA; R&D Systems, Minneapolis, Minn.) according to the instructions of the manufacturer.
To determine whether iCasp9M could effectively destroy cells genetically modified to express an active transgene product, the ability of iCasp9M to eliminate EBV-CTLs stably expressing IL-12 was measured. While IL-12 was undetectable in the supernatant of nontransduced and iCasp9M.IRES.GFP-transduced CTLs, the supernatant of iCasp9M.IRES.IL-12-transduced cells contained 324 pg/mL to 762 pg/mL IL-12. After administration of 10 nM CID, however, the IL-12 in the supernatant fell to undetectable levels (<8 pg/mL). Thus, even without prior sorting for high transgene expressing cells, activation of iCasp9M is sufficient to completely eliminate all T cells producing biologically relevant levels of IL-12 (FIG. 6). The function of iCasp9M when coexpressed with IL-12 is graphically represented by bar graphs in FIG. 6. […] Three days after a second antigenic stimulation, the levels of IL-12 in the culture supernatant were measured by IL-12 ELISA (detection limit of this assay is 8 pg/mL). […]

[5] = 10 nM, 24 hours, day following immunomagnetic selection

CC[C@H](C(=O)N1CCCC[C@H]1C(=O)O[C@H](CCc1ccc(OC)c(OC)c1)c1cccc(OCC(=O)NCC(CNC(=O)COc2cccc([C@@H](CCc3ccc(OC)c(OC)c3)OC(=O)[C@@H]3CCCCN3C(=O)[C@@H](CC)c3cc(OC)c(OC)c(OC)c3)c2)CN(C)C)c1)c1cc(OC)c(OC)c(OC)c1 [AP20187]
AP20187-treated cells remaining viable [1, 5]: about 5.5%±2.5
Killing efficiency after correction for baseline viability [1, 5]: about 92.9%±3.8
killing efficiency ([1]; day 24 or 25, OKT3/aCD28-reactivated cells): ~84.6%±8.0
residual viability following treatment with AP20187 ([1]; day 24 post transduction, 10 nM): 19.6±5.6%
apoptosis / elimination of iCasp9-modified T cells after dimerizer (summary statement) ([1]; in vitro, listed as small-molecule dimerizer): > 90%
reduction in mean fluorescence intensity of GFP after CID ([2]; CTLs that survived CID treatment): 70%
further elimination of the surviving GFP+ T cells ([2]; antigenic stimulation followed by a second 10-nM dose of CID): No further elimination
CID sufficient to obtain the maximal deletion effect ([2]; titration, F-Casp9M.I.GFPhigh, survival of GFP+ cells on day 7): 1 nM
GFP+ cells eliminated after a single 10-nM dose of CID ([2]; unselected iCasp9M-transduced CTLs, 5 different donors): 91.3%
transduced T cells undergoing apoptosis after administration of CID [3]: Up to 90%
IL-12 in the supernatant after CID [4]: < 8 pg/mL

Reference: US10525110B2, “Methods for inducing partial apoptosis using caspase polypeptides” (Bellicum Pharmaceuticals, Inc., priority 2013, dated 2020)
